According to patent US20260224524A1, “A PHARMACEUTICAL COMPOSITION TARGETING MUTANT P53 AND HER2” (DR DOZO LABORATORIES, priority 2023, published 2026):
Converted amounts (≈) assume the structure as drawn. Where two headings read alike, the source gives them in different places.

Columns and labels:
Assay type in all cases: cell-based
[1] = system: Human Lung Cancer Cell Line A-549; test: Growth inhibition (% control growth, LC50, TGI, GI50) A-549; conditions: A-549
Description: The therapeutic effect of SA1 (peak 5) and SA2 (peak 4) is evaluated against human lung cancer cell line A-549 by calculating the percentage growth inhibition, drug concentration of test compound needed to inhibit cell growth by 50% (GI50) values.
The therapeutic effect of SACC is evaluated against human lung cancer cell line A-549 by calculating the percentage growth inhibition, drug concentration of test compound needed to inhibit cell growth by 50% (GI50) values.

[2] = system: Human Breast Cancer Cell Line MDA-MB-231; test: Growth inhibition (% control growth, LC50, TGI, GI50) MDA-MB-231
Description: The therapeutic effect of […] (peak 5) and SA2 (peak 4) is evaluated against human […] cancer cell line MDA-MB-231 by calculating the percentage growth inhibition, drug concentration of test compound needed to inhibit cell growth by 50% (GI50) values.
The therapeutic effect of SACC is evaluated against human […] cancer cell lines MDA-MB-231 by calculating the percentage growth inhibition, drug concentration of test compound needed to inhibit cell growth by 50% (GI50) values.

[3] = system: Human Breast Cancer Cell Line MDA-MB-231; test: as above; conditions: Molar drug concentrations calculated from graph
[4] = system: Human Pancreatic Cancer Cell Line Mia-Pa-Ca-2; test: Growth inhibition (% control growth, LC50, TGI, GI50) Mia-Pa-Ca-2; conditions: Mia-Pa-Ca-2
Description: The therapeutic effect of SA1 (peak 5) and SA2 (peak 4) is evaluated against human pancreatic cancer cell line Mia-Pa-Ca-2 by calculating the percentage growth inhibition, drug concentration of test compound needed to inhibit cell growth by 50% (GI50) values.
The therapeutic effect of SACC is evaluated against human […] cancer cell line Mia-Pa-Ca-2 by calculating the percentage growth inhibition, drug concentration of test compound needed to inhibit cell growth by 50% (GI50) values.

A549 cell line [5] = test: Cytotoxicity MTT assay against A549; conditions: Homo sapiens; for inhibition at 1.563 µM / inhibition at 3.125 µM / inhibition at 6.25 µM / inhibition at 12.5 µM / inhibition at 25 µM / inhibition at 50 µM / inhibition at 100 µM: A549, A549
Description: For cytotoxicity studies, Test sample was considered as 100% stock and serial two-fold dilutions were prepared from 10% to 0.156% using F-12K plain media for treatment. 10 mM stock of Standard Doxorubicin was diluted from 100 μM to […] using F-12K plain media for treatment.
(§1) A549 cells were cultured in F-12K medium with appropriate supplements in a humidified atmosphere of 5% CO2 at 37° C. until confluent. The viability of the cells was checked using conventional hemocytometer. Appropriate cell density per ml of media was prepared and seeded in a 96 well plate and incubated for 24 h at 37° C. with 5% CO2 to assess the cell viability.
• 1. The cell count was adjusted to 5×10^5 cells/ml using complete media. To each well of the 96 well microtiter plate, 100 μl of the diluted cell suspension (50,000 cells/well) was added and incubated for 24 h at 37° C. in 5% CO2 atmosphere. • 2. After 24 h, the cells were treated with various concentrations of test compound and incubated at 37° C. for 24 h in 5% CO2 atmosphere. • 3. After incubation, the test solutions in the wells were discarded and 100 μl of MTT (5 mg/10 ml of MTT in PBS) was added to each well. The plates were incubated for 4 h at 37° C. in 5% CO2 atmosphere. • 4. The supernatants were removed and 100 μl of DMSO was added and the plates were gently shaken to solubilize the formed formazan. The absorbance was measured using a microplate reader at a wavelength of 590 nm. • 5.
% Inhibition=(OD of sample−OD of Control/OD of Control)×100

A549 cell line [6] = test: Cell viability test using trypan blue exclusion method against A549; conditions: Homo sapiens, 24 h
Description: For cytotoxicity studies, Test sample was considered as 100% stock and serial two-fold dilutions were prepared from 10% to 0.156% using F-12K plain media for treatment. 10 mM stock of Standard Doxorubicin was diluted from 100 μM to 1.56 μM using F-12K plain media for treatment.
as §1
• 1. The cell count was adjusted to 5×10^5 cells/ml using complete media. To each well of the 96 well microtiter plate, 100 μl of the diluted cell suspension (50,000 cells/well) was added and incubated for 24 h at 37° C. in 5% CO2 atmosphere. • 2. After 24 h, the cells were treated with various concentrations of test compound and incubated at 37° C. for 24 h in 5% CO2 atmosphere. • 3. After incubation the test solutions in the wells were discarded. • 4. Cells were trypsinized and 20 μl of cell suspension was taken for viability counting. • 5. To this 20 μl of trypan blue dye was added and mixed well. • 6. The mixture was then loaded to haemocytometer at the end of the notch with the help of pipette. • 7. Haemocytometer was kept under the inverted microscope and scored in each quadrant. • 8. Cell counting wad done according to Neubauer's rules and noted. Percentage cell viability was calculated for the obtained data using below given formulae.
Viable cells=Average viable cells*2*10^3 cells/100 μl
% Viability=Viable cells/Total cells×100

[7] = read-out: % Mean Cell Inhibition

Cc1cc(=O)cco1 (single isomer, unassigned) [SA1 (peak 5), 2-methyl-4H-pyran-4-one]
% Control Growth ([1]; 10^−4M, Average Values): 65.2% | % Control Growth ([1]; 10^−4M, Experiment 1): 64.0% | % Control Growth ([1]; 10^−4M, Experiment 2): 65.1% | % Control Growth ([1]; 10^−4M, Experiment 3): 66.6% | % Control Growth ([1]; 10^−5M, Average Values): 81.9% | % Control Growth ([1]; 10^−5M, Experiment 1): 86.4% | % Control Growth ([1]; 10^−5M, Experiment 2): 78.3% | % Control Growth ([1]; 10^−5M, Experiment 3): 81.1% | % Control Growth ([1]; 10^−6M, Average Values): 79.1% | % Control Growth ([1]; 10^−6M, Experiment 1): 83.6% | % Control Growth ([1]; 10^−6M, Experiment 2): 77.7% | % Control Growth ([1]; 10^−6M, Experiment 3): 75.9% | % Control Growth ([1]; 10^−7M, Average Values): 79.7% | % Control Growth ([1]; 10^−7M, Experiment 1): 80.8% | % Control Growth ([1]; 10^−7M, Experiment 2): 80.6% | % Control Growth ([1]; 10^−7M, Experiment 3): 77.6% | % Control Growth ([2]; 10^−4M, Average Values): 35.0% | % Control Growth ([2]; 10^−4M, Experiment 1): 43.7% | % Control Growth ([2]; 10^−4M, Experiment 2): 27.1% | % Control Growth ([2]; 10^−4M, Experiment 3): 34.3% | % Control Growth ([2]; 10^−5M, Average Values): 58.6% | % Control Growth ([2]; 10^−5M, Experiment 1): 75.2% | % Control Growth ([2]; 10^−5M, Experiment 2): 44.0% | % Control Growth ([2]; 10^−5M, Experiment 3): 56.4% | % Control Growth ([2]; 10^−6M, Average Values): 75.4% | % Control Growth ([2]; 10^−6M, Experiment 1): 90.3% | % Control Growth ([2]; 10^−6M, Experiment 2): 69.9% | % Control Growth ([2]; 10^−6M, Experiment 3): 66.1% | % Control Growth ([2]; 10^−7M, Average Values): 60.8% | % Control Growth ([2]; 10^−7M, Experiment 1): 75.4% | % Control Growth ([2]; 10^−7M, Experiment 2): 50.9% | % Control Growth ([2]; 10^−7M, Experiment 3): 56.0% | TGI [3]: 4.03 µg/mL (≈ 36.6 µM) | GI50 ([4]; Homo sapiens, MIA PaCa-2, Molar drug concentrations calculated from graph): 0.00108 µg/mL (≈ 0.00984 µM) | % Control Growth ([4]; 10^−4M, Average Values): 49.2% | % Control Growth ([4]; 10^−4M, Experiment 1): 30.0% | % Control Growth ([4]; 10^−4M, Experiment 2): 63.5% | % Control Growth ([4]; 10^−4M, Experiment 3): 54.2% | % Control Growth ([4]; 10^−5M, Average Values): 108.5% | % Control Growth ([4]; 10^−5M, Experiment 1): 97.0% | % Control Growth ([4]; 10^−5M, Experiment 2): 112.7% | % Control Growth ([4]; 10^−5M, Experiment 3): 115.9% | % Control Growth ([4]; 10^−6M, Average Values): 113.4% | % Control Growth ([4]; 10^−6M, Experiment 1): 111.0% | % Control Growth ([4]; 10^−6M, Experiment 2): 116.4% | % Control Growth ([4]; 10^−6M, Experiment 3): 112.6% | % Control Growth ([4]; 10^−7M, Average Values): 105.7% | % Control Growth ([4]; 10^−7M, Experiment 1): 108.1% | % Control Growth ([4]; 10^−7M, Experiment 2): 95.5% | % Control Growth ([4]; 10^−7M, Experiment 3): 113.5% | TGI ([4]; Molar drug concentrations calculated from graph): 0.7992 µg/mL (≈ 7.26 µM)

COc1cccc2c1C(=O)c1c(O)c3c(c(O)c1C2=O)C[C@@](O)(C(=O)CO)C[C@@H]3O[C@H]1C[C@H](N)[C@H](O)[C@H](C)O1 [Doxorubicin]
inhibition at 1.563 µM (A549 cell line [5]; n = 1, read-out: % Inhibition): 17.3% | inhibition at 1.563 µM (A549 cell line [5]; n = 2, read-out: % Inhibition): 19.6% | inhibition at 1.563 µM (A549 cell line [5]; n = 3, read-out: % Inhibition): 18.4% | inhibition at 1.563 µM (A549 cell line [5]; [7]): 18.4% | inhibition at 3.125 µM (A549 cell line [5]; n = 1, read-out: % Inhibition): 27.8% | inhibition at 3.125 µM (A549 cell line [5]; n = 2, read-out: % Inhibition): 25.6% | inhibition at 3.125 µM (A549 cell line [5]; n = 3, read-out: % Inhibition): 24.7% | inhibition at 3.125 µM (A549 cell line [5]; [7]): 26.1% | inhibition at 6.25 µM (A549 cell line [5]; n = 1, read-out: % Inhibition): 36.3% | inhibition at 6.25 µM (A549 cell line [5]; n = 2, read-out: % Inhibition): 35.9% | inhibition at 6.25 µM (A549 cell line [5]; n = 3, read-out: % Inhibition): 37.4% | inhibition at 6.25 µM (A549 cell line [5]; [7]): 36.5% | inhibition at 12.5 µM (A549 cell line [5]; n = 1, read-out: % Inhibition): 45.4% | inhibition at 12.5 µM (A549 cell line [5]; n = 2, read-out: % Inhibition): 44.2% | inhibition at 12.5 µM (A549 cell line [5]; n = 3, read-out: % Inhibition): 45.8% | inhibition at 12.5 µM (A549 cell line [5]; [7]): 45.1% | inhibition at 25 µM (A549 cell line [5]; n = 1, read-out: % Inhibition): 64.5% | inhibition at 25 µM (A549 cell line [5]; n = 2, read-out: % Inhibition): 65.2% | inhibition at 25 µM (A549 cell line [5]; n = 3, read-out: % Inhibition): 65.2% | inhibition at 25 µM (A549 cell line [5]; [7]): 65% | inhibition at 50 µM (A549 cell line [5]; n = 1, read-out: % Inhibition): 75.5% | inhibition at 50 µM (A549 cell line [5]; n = 2, read-out: % Inhibition): 74.4% | inhibition at 50 µM (A549 cell line [5]; n = 3, read-out: % Inhibition): 78.2% | inhibition at 50 µM (A549 cell line [5]; [7]): 76% | inhibition at 100 µM (A549 cell line [5]; n = 1, read-out: % Inhibition): 87.9% | inhibition at 100 µM (A549 cell line [5]; n = 2, read-out: % Inhibition): 90.3% | inhibition at 100 µM (A549 cell line [5]; n = 3, read-out: % Inhibition): 89.2% | inhibition at 100 µM (A549 cell line [5]; [7]): 89.2% | IC50 (A549 cell line [5]; A549, MTT, 24 h): 20.3 µM | viability at 1.563 µM (A549 cell line [6]; 1.563 μM): 85.5% | viability at 3.125 µM (A549 cell line [6]; 3.125 μM): 74.5% | viability at 6.25 µM (A549 cell line [6]; 6.25 μM): 66.1% | viability at 12.5 µM (A549 cell line [6]; 12.5 μM): 51.6% | viability at 25 µM (A549 cell line [6]; 25 μM): 36.5% | viability at 50 µM (A549 cell line [6]; 50 μM): 26.2% | viability at 100 µM (A549 cell line [6]; 100 μM): 11.1%
